# Measurements: US11446270B2, “Leonurine crystal and use thereof in preparation of insulin sensitizer, hypoglycemic drug and lipid-lowering drug” (ZHUHAI HENGQIN NEW DISTRICT ZHONGZHU ZHENGTAI MEDICAL …, priority 2017, dated 2022)
# Assays:
# [1] = Accelerated stability test of leonurine crystal forms; format: physicochemical; conditions: 40° C.; for Crystal stability: 70% RH, 10 days
# Text: In the invention, the dominant medicinal crystal form was also screened by the accelerated stability experimental method, and observed the transformation among the various crystal forms.
# [2] = Hygroscopicity, dynamic vapor sorption (DVS), 0-95% RH; format: physicochemical; conditions: for change of crystal form / hygroscopicity (in words): range of 0-95% relative humidity
# Protocol: Dynamic vapor sorption (DVS) method, instrument model: SMS DVS Intrinsic, 0˜95% RH, temperature: 25° C.; FTIR method, instrument model: Nicolet 6700, sectral range: 4000˜400 cm^−1, resolution ratio: 4 cm^−1, scanning times: 32, the infrared spectra of the samples were determined by KBr pressed-disk technique method, temperature: 25° C.;
# In this invention, it is named as leonurine crystal form A, which is monohydrate crystal form, square block crystal (as shown in FIG. 13), no crystal transformation before melting, dehydrates at 120˜150° C. and transform into anhydrous crystal form B, and decomposes at about 250° C. […] Under the condition of, in the suspension experiment at 25° C., in methanol, ethanol, isopropanol, acetone, acetonitrile, tetrahydrofuran, nitromethane, ethyl acetate, isopropyl acetate, isoamyl alcohol, methyl tert-butyl ether, toluene, methyl isobutyl ketone, n-hexane, n-heptane, ether, dichloromethane, chloroform, petroleum ether, water and other solvents; and under the condition of, in the suspension experiment at 50° C., in methanol, ethanol, acetone, methyl ethyl ketone, isopropyl acetate, methyl tert-butyl ether, toluene, n-hexane, n-heptane, diethyl ether, chloroform, petroleum ether, water and other solvents; and under most solvent conditions in suspension and volatilization of mixed solvents at 25° C. and 50° C., form A can be obtained. […] In a range of 0˜95% RH, the dehydration and water absorption behavior of the crystal form is very weak.
# New Zealand white rabbit = experiment: Serum lipids in hyperlipidemia New Zealand rabbits on high fat diet; format: in vivo; conditions: positive control 2.5 mg/kg/day intragastric, 12 weeks, vs model group
# Protocol: Forty-eight male New Zealand rabbits weighed 1.8 to 2.2 kg were housed under 12 h dark-12 h light cycles and allowed food and water ad libitum to adapt to the housing environment for one week, and then randomly divided into 6 groups: • 1) Control group (Normal diet, n=8); Administered intragastrically with ultrapure water; • 2) Model group (High fat diet, n=8); Administered intragastrically with ultrapure water; • 3) Leonurine crystal form A in low dose group (High fat diet, n=8); Administered intragastrically at a dose of 4 mg/kg/day; • 4) Leonurine crystal form A in middle dose group (High fat diet, n=8); Administered intragastrically at a dose of 8 mg/kg/day; • 5) Leonurine crystal form A in high dose group (High fat diet, n=8); […] Administered intragastrically at a dose of 2.5 mg/kg/day; Rabbits were weighed before administered drugs every week, where the dosage of the drug for rabbits is calculate according to the weight; and housed in an air-conditioned room under (24±1° C. room temperature and 55±5% air humidity) and allowed enough food and water ad libitum. After 12 weeks of administration, the rabbits were fasted for 12 h, and blood (2 ml) was drawn from the marginal ear vein for hematology analysis. Hematology analysis: blood samples were let for standing for 2 h and centrifuged (3000 rpm, 10 min, 4° C.) to obtain serum. The serum samples were tested according to the protocols recommended by Nanjing Jiancheng Bioengineering Institute. The total cholesterol (TC), triacylglycerol (TG), low-density cholesterol (LDL-C) and […] (HDL-C) levels in the serum samples were assessed using automatic microplate reader and automatic biochemical analyzer. Statistical analysis: GraphPad Prism 5 software was used to analyze and draw figure. Results were expressed as the mean±standard (mean±SD), and statistical analysis was performed by one-way analysis of variance (ANOVA) or student's t test. A difference with P<0.05 was considered statistically significant. Statistical significance was set at *P<0.05, **P<0.01, ***P<0.001 versus the model group.
# ApoE knockout mice = experiment: Serum lipids in hyperlipidemia ApoE knockout mice on high fat diet; format: in vivo; conditions: positive control 3 mg/kg/day intragastric, 4 weeks, vs model group
# Protocol: Fifteen C57BL/6J mice (male, 6-8 weeks) and seventy-five ApoE knockout mice (male, 6-8 weeks) were used for experiments. C57BL/6J mice were fed with normal diet, and ApoE knockout mice were fed for 1 week with a diet of normal/high fat diet ratio of 1/1.
# Mice were weighed before administered drugs every week, where the dosage of the drug for mice is calculate according to the weight; and housed under 24±1° C. room temperature and 55±5% air humidity condition, and allowed enough food and water ad libitum. After the drug administration continuously for 4 weeks, the mice were anesthetized with pentobarbital sodium according to body weight. Blood (0.5 ml per mouse) was drawn from the inner canthus vein for hematology analysis. Hematology analysis: blood samples were let for standing for 2 h and centrifuged (3000 rpm, 10 min, 4° C.) to obtain serum. The total cholesterol (TC), triacylglycerol (TG) and low-density cholesterol (LDL-C) levels in the serum samples were assessed using automatic biochemical analyzer. Statistical analysis: GraphPad Prism 5 software was used to analyze and draw figure. Results were expressed as the mean±standard (mean±SD), and statistical analysis was performed by one-way analysis of variance (ANOVA) or student's t test. A difference with P<0.05 was considered statistically significant. Statistical significance was set at *P<0.05, **P<0.01, ***P<0.001 versus the model group.
# [3] = relative humidity 60%-80%, 10-day stability test
smiles,measurement,setting,value
"COc1cc(C(=O)OCCCCNC(=N)N)cc(OC)c1O [crystal form B, 4-guanidino-1-butyl 4-hydroxy-3,5-dimethoxybenzoate]",Crystal stability,[1],transformed into crystal form A
same,Crystal stability,[1]; listed as B,form into A
same,crystal transformation behavior,[1]; [3],appeared crystal transformation
same,"hygroscopicity, water absorption",[2]; 60% RH,"60% RH, water absorption 0.14%"
same,"hygroscopicity, water absorption",[2]; 80% RH,"80% RH, water absorption 0.30%"
same,change of crystal form,[2],changed into crystal form A
same,hygroscopicity (in words),[2],slightly hygroscopicity
"COc1cc(C(=O)OCCCCNC(=N)N)cc(OC)c1O [crystal form C, 4-guanidino-1-butyl 4-hydroxy-3,5-dimethoxybenzoate]",Crystal stability,[1],transformed into crystal form A
same,Crystal stability,[1]; listed as C,form into A
same,crystal transformation behavior,[1]; [3],appeared crystal transformation
same,"hygroscopicity, water absorption",[2]; 60% RH,"60% RH, water absorption 0.56%"
same,"hygroscopicity, water absorption",[2]; 80% RH,"80% RH, water absorption 1.05%"
same,change of crystal form,[2],changed into crystal form A
"COc1cc(C(=O)OCCCCNC(=N)N)cc(OC)c1O [crystal form F, 4-guanidino-1-butyl 4-hydroxy-3,5-dimethoxybenzoate]",Crystal stability,[1]; listed as F,form into A
same,Crystal stability,[1]; listed as form F,transformed into crystal form A
same,crystal transformation behavior,[1]; [3],appeared crystal transformation
same,"hygroscopicity, water absorption",[2]; 60% RH,"60% RH, water absorption 0.14%"
same,"hygroscopicity, water absorption",[2]; 80% RH,"80% RH, water absorption 0.30%"
same,change of crystal form,[2],changes into crystal form A
same,hygroscopicity (in words),[2],slightly hygroscopicity
"COc1cc(C(=O)OCCCCNC(=N)N)cc(OC)c1O [crystal form E, 4-guanidino-1-butyl 4-hydroxy-3,5-dimethoxybenzoate]",Crystal stability,[1],remain unchanged
same,Crystal stability,[1]; listed as E,stable
same,crystal transformation behavior,[1]; [3],did not appear crystal transformation
same,hygroscopicity (in words),[1]; [3],strong
same,hygroscopicity relative to crystal form A,[1]; [3],about ten times
same,"hygroscopicity, water absorption",[2]; 60% RH,"60% RH, water absorption 0.07%"
same,"hygroscopicity, water absorption",[2]; 80% RH,"80% RH, water absorption 0.12%"
same,change of crystal form,[2],didn't change
same,hygroscopicity (in words),[2],slight hygroscopicity
"COc1cc(C(=O)OCCCCNC(=N)N)cc(OC)c1O [crystal form D, 4-guanidino-1-butyl 4-hydroxy-3,5-dimethoxybenzoate]",Crystal stability,[1],transformed into crystal form A
same,Crystal stability,[1]; listed as D,form into A
same,crystal transformation behavior,[1]; [3],appeared crystal transformation
same,"hygroscopicity, water absorption",[2]; 60% RH,"60% RH, water absorption 1.63%"
same,"hygroscopicity, water absorption",[2]; 80% RH,"80% RH, water absorption 0.98%"
same,change of crystal form,[2],changed into crystal form A
"CC(C)c1c(C(=O)Nc2ccccc2)c(-c2ccccc2)c(-c2ccc(F)cc2)n1CC[C@@H](O)C[C@@H](O)CC(=O)O [Atorvastatin, reference compound]",serum total cholesterol (TC),New Zealand white rabbit,no significant difference
same,serum triacylglycerol (TG),New Zealand white rabbit,reduced
same,serum total cholesterol (TC),ApoE knockout mice,reduced
same,serum triacylglycerol (TG),ApoE knockout mice,reduced
